# From paper PMC10165273, “Itch receptor MRGPRX4 interacts with the receptor activity–modifying proteins” (The Journal of Biological Chemistry, 2023)
# Where “and” joins values, the source holds several entries; their conditions need not be identical. Equal values may be shown once.
# Experiments:
# MRGPRX4 = target: T1, MRGPRX4 (Homo sapiens, UniProt Q96LA9); assay: IP1 accumulation HTRF assay, MRGPRX4; format: cell-based; design: key to IP1 Basal / IP1 accumulation with YM (Figure 1c) / response to agonist, MRGPRX4 / IP1 accumulation: % IP1: unstimulated mock-transfected = 0%, fully stimulated MRGPRX4 = 100%
# T1 construct: expressed in transfected cells; host or cells: HEK293T
# T1 sequence (Q96LA9 whole entry): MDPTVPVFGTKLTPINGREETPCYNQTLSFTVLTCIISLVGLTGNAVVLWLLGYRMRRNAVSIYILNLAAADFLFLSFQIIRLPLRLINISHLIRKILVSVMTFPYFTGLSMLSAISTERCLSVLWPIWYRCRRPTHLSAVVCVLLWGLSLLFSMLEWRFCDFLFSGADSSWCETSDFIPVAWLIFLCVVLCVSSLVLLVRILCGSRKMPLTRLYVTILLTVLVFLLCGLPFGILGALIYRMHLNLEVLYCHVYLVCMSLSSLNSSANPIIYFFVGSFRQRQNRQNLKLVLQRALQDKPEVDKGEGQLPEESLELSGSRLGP
# Method: (§1) HEK293T cells were transfected with 1 pg/cell of MRGPRX4 DNA, and the amount of DNA was kept constant at 2 pg/cell with pcDNA3.1(+) empty vector, unless otherwise specified. Twenty four hours after transfection, IP1 assay was performed as previously described ([51]). When applicable, cells were treated with 1 μM YM254890 (YM) or different concentrations of U73122 for 1 h prior to addition of agonist or buffer. After incubation for 2 h, HTRF reagents and IP1 calibration standards were added and incubated for 2 h in the dark at room temperature. Time-resolved fluorescence signals were read on the BioTek Synergy NEO-TRF Hybrid multi-mode reader (BioTek Instruments). All data were carried out in three independent experiments with three technical replicate each.
# For characterization of the Tet-On Nluc-HT7-MRGPRX4-GFP10-1D4 construct, HEK293T cells were transfected as previously described with some modifications. Dox dose-response of NLuc-HT7-MRGPRX4-GFP10-1D4 DNA titration was assayed by transfecting HEK293T cells with either 1 or 2 pg/cell of NLuc-HT7-MRGPRX4-GFP10-1D4 construct. Receptor expression was induced 4 h after transfection with addition of different concentrations of dox for 20 h. For the RAMP DNA titration assay, cells were cotransfected with a constant amount of 1 pg/cell of NLuc-HT7-MRGPRX4-GFP10-1D4 DNA and 1, 0.75, 0.5, or 0 pg/cell of each HA-RAMP-OLLAS with the homogenous transfection method. Four hours after transfection, receptor expression was induced with addition of 1000 ng/ml dox. Twenty hours after induction, IP1 assay was performed.
# (§2) Data reduction, standard calibration, and transformation of HTRF data were performed as previously described ([51]). Normalized IP1 values were calculated relative to the unstimulated mock-transfected cells (set to 0%) and fully stimulated MRGPRX4 (alone if applicable) (set to 100%).
# MRGPRX4 + RAMP1 = target: T2, MRGPRX4 + RAMP1 (Homo sapiens, UniProt Q96LA9); assay: IP1 accumulation, MRGPRX4 coexpressed with RAMP1; format: cell-based; design: key to IP1 Basal / response to agonist, X4:ramp1.I:1 / response to agonist, X4:ramp1.I:2 / response to agonist, X4:ramp1.I:0.25 / response to agonist, X4:ramp1.I:0.5: % IP1; unstimulated mock = 0%, fully stimulated MRGPRX4 = 100%; conditions: Figure 4c-f, agonist 100µM, MRGPRX4 = 100
# T2 construct: expressed in transfected cells; host or cells: HEK293T
# T2 sequence (Q96LA9 whole entry): as above
# Method: as §1
# For a homogenous transfection of MRGPRX4, a master mix of MRGPRX4 DNA was made prior to addition of the RAMP DNA. […]
# as §2
# MRGPRX4 + RAMP2 = target: T3, MRGPRX4 + RAMP2 (Homo sapiens, UniProt Q96LA9); assay: IP1 accumulation, MRGPRX4 coexpressed with RAMP2; format: cell-based; design: key to response to agonist, X4:ramp2.I:2: % IP1: mock-transfected unstimulated = 0%, fully stimulated MRGPRX4 = 100%; key to IP1 Basal / response to agonist, X4:ramp2.I:0.25 / response to agonist, X4:ramp2.I:0.5 / response to agonist, X4:ramp2.I:1: % IP1; unstimulated mock = 0%, fully stimulated MRGPRX4 = 100%; conditions: Figure 4c-f, agonist 100µM, MRGPRX4 = 100
# T3 construct: expressed in transfected cells; host or cells: HEK293T
# T3 sequence (Q96LA9 whole entry): as above
# Method: as §1
# (§3) For RAMP DNA titration assay, HEK293T cells were cotransfected with a constant amount of 1 pg/cell of FLAG-MRGPRX4-GFP10-1D4 to which a serial dilution of 1, 0.75, 0.5, 0.25, or 0 pg/cell of each HA-RAMP-OLLAS was added. For a homogenous transfection of MRGPRX4, a master mix of MRGPRX4 DNA was made prior to addition of the RAMP DNA. […]
# as §2
# MRGPRX4 + RAMP3 [1] = target: T4, MRGPRX4 + RAMP3 (Homo sapiens, UniProt Q96LA9); assay: IP1 accumulation, MRGPRX4 coexpressed with RAMP3; format: cell-based; design: key to IP1 Basal / response to agonist, X4:ramp3.I:0.25 / response to agonist, X4:ramp3.I:0.5 / response to agonist, X4:ramp3.I:1: % IP1; unstimulated mock = 0%, fully stimulated MRGPRX4 = 100%; conditions: Figure 4c-f, agonist 100µM, MRGPRX4 = 100
# T4 construct: expressed in transfected cells; host or cells: HEK293T
# T4 sequence (Q96LA9 whole entry): as above
# Method: as §1, §3, §2
# [2] = tested on: mock-transfected HEK293T cells; assay: IP1 accumulation, mock-transfected cells; format: cell-based, human; design: IP1 Basal / IP1 span / IP1 Emax / IP1 accumulation, dose-response (Figure 1a) / IP1 accumulation with YM (Figure 1c) / IP1 accumulation: unit not given here; conditions: pcDNA (mock), individual replicates
# Method: as §1
# Validation of CALCRL constructs was assayed by cotransfecting HEK293T cells with different tagged versions of CALCRL alone or with each RAMP and with the promiscuous Gqs5 Gq chimera protein, at a respective DNA ratio of 1:1:0.5. Gqs5 is an engineered Gq protein containing the last five amino acid residues of Gs, which allows Gs-coupled GPCRs to signal through Gq downstream signaling pathways ([55]). The homogenous transfection method described above was used for all DNA mixes. CALCRL:RAMP2:Gqs5-transfected cells served as positive control for RAMP functionality.
# as §2
# MRGPRX4 + RAMP3 [3] = target: T4, MRGPRX4 + RAMP3; assay: IP1 accumulation, MRGPRX4 coexpressed with RAMP3; format: cell-based; design: key: % IP1; unstimulated mock = 0%, fully stimulated MRGPRX4 = 100%; conditions: Figure 4c-f; agonist 100µM; X4:ramp3 1:2; MRGPRX4 = 100
structure (smiles),measurement,setting,value
"C[C@H](CCC(=O)O)[C@H]1CC[C@H]2[C@@H]3[C@@H](O)C[C@@H]4C[C@H](O)CC[C@]4(C)[C@H]3CC[C@]12C [UDCA, ursodeoxycholic acid]",activation at 33.333 µM,"MRGPRX4; 2 h, log [agonist] (M) -4.47712, MRGX4-transfected, individual replicates, read-out: IP1 accumulation, dose-response (Figure 1a)",16.7%
same,activation at 11.111 µM,"MRGPRX4; 2 h, log [agonist] (M) -4.95424, MRGX4-transfected, individual replicates, read-out: IP1 accumulation, dose-response (Figure 1a)",14.8%
same,activation at 1.2346 µM,"MRGPRX4; 2 h, log [agonist] (M) -5.90849, MRGX4-transfected, individual replicates, read-out: IP1 accumulation, dose-response (Figure 1a)",12.9%
same,activation at 0.4115 µM,"MRGPRX4; 2 h, log [agonist] (M) -6.38561, MRGX4-transfected, individual replicates, read-out: IP1 accumulation, dose-response (Figure 1a)",12.7%
same,activation at 0.13717 µM,"MRGPRX4; 2 h, log [agonist] (M) -6.86273, MRGX4-transfected, individual replicates, read-out: IP1 accumulation, dose-response (Figure 1a)",12.1%
same,"response to agonist, MRGPRX4","MRGPRX4; Figure 4c-f, agonist 100µM, MRGPRX4 alone (reference = 100)",100
same,IP1 Basal,"MRGPRX4; MRGPRX4 (Fig. 1A), HEK293T, normalized to 100 μM nateglinide",13.66
same,"response to agonist, X4:ramp1.I:0.25",MRGPRX4 + RAMP1; X4:ramp1 1:0.25,100.75 and 106.142
same,"response to agonist, X4:ramp1.I:0.5",MRGPRX4 + RAMP1; X4:ramp1 1:0.5,100.618 and 106.983
same,"response to agonist, X4:ramp1.I:1",MRGPRX4 + RAMP1; X4:ramp1 1:1,95.1306 and 98.4249
same,"response to agonist, X4:ramp1.I:2",MRGPRX4 + RAMP1; X4:ramp1 1:2,83.6233 and 101.678
same,"response to agonist, X4:ramp2.I:0.25",MRGPRX4 + RAMP2; X4:ramp2 1:0.25,79.4398 and 88.1338
same,"response to agonist, X4:ramp2.I:0.5",MRGPRX4 + RAMP2; X4:ramp2 1:0.5,67.697 and 77.1393
same,"response to agonist, X4:ramp2.I:1",MRGPRX4 + RAMP2; X4:ramp2 1:1,40.116 and 40.4903
same,"response to agonist, X4:ramp2.I:2",MRGPRX4 + RAMP2; X4:ramp2 1:2,13.5988 and 14.044
same,"response to agonist, X4:ramp3.I:0.25",MRGPRX4 + RAMP3 [1]; X4:ramp3 1:0.25,86.9905 and 87.7685
same,"response to agonist, X4:ramp3.I:0.5",MRGPRX4 + RAMP3 [1]; X4:ramp3 1:0.5,74.5043 and 88.6761
same,"response to agonist, X4:ramp3.I:1",MRGPRX4 + RAMP3 [1]; X4:ramp3 1:1,78.3418 and 68.7873
same,"IP1 accumulation, dose-response (Figure 1a)",[2]; log [agonist] (M) -4,0.4812 and 0.4346 and 0.8349 and -0.1011 and 0.2178 and -0.3214 and 0.5013 and -0.2736 and -1.513 and -0.6571 and 0.03201 and -0.9921
same,"IP1 accumulation, dose-response (Figure 1a)",[2]; log [agonist] (M) -4.95424,0.8578 and 0.7057 and 0.8792 and 0.1679 and 0.2632 and -0.1306 and 0.2729 and -0.3135 and 0.01077 and -0.3984 and 1.094 and -0.3997
same,"IP1 accumulation, dose-response (Figure 1a)",[2]; log [agonist] (M) -5.90849,0.6444 and 0.5533 and 0.8424 and 0.3166 and 0.4567 and -0.2351 and 0.4796 and -0.05346 and 0.7094 and 0.5317 and 1.212 and 0.8514
same,"IP1 accumulation, dose-response (Figure 1a)",[2]; log [agonist] (M) -6.86273,1.003 and 1.057 and 1.14 and 0.6057 and 0.714 and 0.2582 and 0.7883 and 0.3494
same,"response to agonist, X4:ramp3.I:2",MRGPRX4 + RAMP3 [3],54.7688 and 68.6572
